# Values quoted from earlier work as cited in US20220313663A1, “ELTROMBOPAG DOSING REGIMEN” (NOVARTIS PHARMACEUTICALS CORPORATION, priority 2019, published 2022).
# Conditions: subjects with Asian ancestry compared to the non-Asian population
compound,measurement,value
CC1=NN(c2ccc(C)c(C)c2)C(=O)/C1=N\Nc1cccc(-c2cccc(C(=O)O)c2)c1O [eltrombopag],eltrombopag clearance (CL/F),lower
